Reference: patent US20210059959A1, “USE OF CANNABINOIDS IN THE TREATMENT OF MENTAL DISORDERS” (GW Pharma Limited, priority 2015, published 2021)

Test system: participants with schizophrenia or related psychotic disorder
Assay: Scale for the Assessment of Negative Symptoms (SANS), double-blind placebo-controlled study of CBD as adjunctive therapy
Type: in vivo, human
Experimental: Example 1 below describes the use of a highly purified cannabis extract comprising cannabidiol (CBD) in a human clinical trial. Example 1 describes data produced in a double-blind, randomised, placebo-controlled, parallel group study of highly purified CBD as adjunctive therapy in first line treatment of schizophrenia or related psychotic disorder.
An eight-week, multi-centre, double-blind, randomised, placebo-controlled, parallel group study was conducted with the aim to determine the efficacy, safety and tolerability of highly purified CBD as adjunctive therapy in first line treatment of schizophrenia or related psychotic disorder.
This study evaluated the efficacy of highly purified CBD compared with placebo on the participant's PANSS Total score, ‘P’, ‘N’, ‘G’, SANS and BACS scores.
Changes from baseline in PANSS scores (Total, ‘P’, ‘N’ and ‘G’), SANS and BACS were recorded at the start of the study (baseline) and at the end of treatment (after 6 weeks treatment with CBD or placebo).
For inclusion in the study participants were required to be male or female aged 18 to 65 years, diagnosed with schizophrenia or a related psychotic disorder (such as schizoaffective or schizophreniform disorder) as defined by the Diagnostic and Statistical Manual of Mental Disorders Version 4. Participants must have been treated for a minimum of four-weeks and be on a stable dose of their current antipsychotic medication. […] A PANSS score in excess of 60 infers that the patient has symptoms related to schizophrenia or related disorders.
The participants were randomised to one of two treatment groups which each consisted of 39 participants. Treatment was administered as either 5 ml CBD (100 mg/ml) oral solution to be taken twice daily or 5 ml matched placebo oral solution to be taken twice daily.
Scale for the Assessment of Negative Symptoms (SANS)
SANS assesses five symptom complexes to obtain clinical ratings of negative symptoms in participants with schizophrenia or related psychotic disorder. They are: affective blunting; alogia (impoverished thinking); avolition/apathy; anhedonia/asociality; and disturbance of attention.
Assessments are conducted on a six-point scale (0=not at all to 5=severe). This scale was measured at each assessment visit (Visit 1-4)

[1] = CBD adjunct, 6 weeks, all patients
[2] = CBD adjunct, 6 weeks, patients on amisulpride
[3] = CBD adjunct, 6 weeks, patients on aripiprazole
[4] = CBD adjunct, 6 weeks, patients on olanzapine
[5] = CBD adjunct, 6 weeks, patients on other antipsychotics
[6] = CBD adjunct, 6 weeks, patients on quetiapine
[7] = CBD adjunct, 6 weeks, patients on risperidone

## C=C(C)[C@@H]1CCC(C)=C[C@H]1c1c(O)cc(CCCCC)cc1O [CBD, Cannabidiol]
[1]
  Change in baseline scores, SANS question 15: Impersistence at work or school: −0.5
  Change in baseline scores, SANS question 18: Recreational interests and activity: −0.6
  Change in baseline scores, SANS question 19: Sexual interest and activity: −0.4
  Change in baseline scores, SANS question 20: Ability to feel closeness and intimacy: −0.3
  Change in baseline scores, SANS question 21: Relationships with friends and peers: −0.3
  Change in baseline scores, SANS question 22: Global rating of anhedonia: −0.3
  Change in baseline scores, SANS question 23: Social inattentiveness: −0.5
  Change in baseline scores, SANS question 24: Inattentiveness during mental status testing: −0.6
  Change in baseline scores, SANS question 25: Global rating of attention: −0.5
  Change in baseline scores, SANS sub-scale 4 (anhedonia/asociality): −1.9
  Change in baseline scores, SANS sub-scale 5 (disturbance of attention): −1.6
  Change in baseline scores, SANS total score: −9.5
[2]
  Change in baseline scores, SANS question 15: Impersistence at work or school: −0.5
  Change in baseline scores, SANS question 18: Recreational interests and activity: 0.0
  Change in baseline scores, SANS question 19: Sexual interest and activity: 0.0
  Change in baseline scores, SANS question 20: Ability to feel closeness and intimacy: −0.1
  Change in baseline scores, SANS question 21: Relationships with friends and peers: −0.1
  Change in baseline scores, SANS question 22: Global rating of anhedonia: −0.1
  Change in baseline scores, SANS question 23: Social inattentiveness: −0.1
  Change in baseline scores, SANS question 24: Inattentiveness during mental status testing: −0.8
  Change in baseline scores, SANS question 25: Global rating of attention: 0.0
  Change in baseline scores, SANS score: −2.4
  Change in baseline scores, SANS sub-scale 4 (anhedonia/asociality): −0.1
  Change in baseline scores, SANS sub-scale 5 (disturbance of attention): −1.0
[3]
  Change in baseline scores, SANS question 15: Impersistence at work or school: −0.3
  Change in baseline scores, SANS question 18: Recreational interests and activity: −0.1
  Change in baseline scores, SANS question 19: Sexual interest and activity: −0.1
  Change in baseline scores, SANS question 20: Ability to feel closeness and intimacy: 0.0
  Change in baseline scores, SANS question 21: Relationships with friends and peers: −0.1
  Change in baseline scores, SANS question 22: Global rating of anhedonia: 0.0
  Change in baseline scores, SANS question 23: Social inattentiveness: −0.4
  Change in baseline scores, SANS question 24: Inattentiveness during mental status testing: −0.5
  Change in baseline scores, SANS question 25: Global rating of attention: −0.4
  Change in baseline scores, SANS score: −4.7
  Change in baseline scores, SANS sub-scale 4 (anhedonia/asociality): −0.2
  Change in baseline scores, SANS sub-scale 5 (disturbance of attention): −1.3
[4]
  Change in baseline scores, SANS question 15: Impersistence at work or school: −1.2
  Change in baseline scores, SANS question 18: Recreational interests and activity: −1.3
  Change in baseline scores, SANS question 19: Sexual interest and activity: −1.0
  Change in baseline scores, SANS question 20: Ability to feel closeness and intimacy: −1.0
  Change in baseline scores, SANS question 21: Relationships with friends and peers: −0.6
  Change in baseline scores, SANS question 22: Global rating of anhedonia: −0.8
  Change in baseline scores, SANS question 23: Social inattentiveness: −0.9
  Change in baseline scores, SANS question 24: Inattentiveness during mental status testing: −0.7
  Change in baseline scores, SANS question 25: Global rating of attention: −0.9
  Change in baseline scores, SANS score: −20.5
  Change in baseline scores, SANS sub-scale 4 (anhedonia/asociality): −4.9
  Change in baseline scores, SANS sub-scale 5 (disturbance of attention): −2.5
[5]
  Change in baseline scores, SANS question 18: Recreational interests and activity: −0.4
  Change in baseline scores, SANS question 19: Sexual interest and activity: −0.3
  Change in baseline scores, SANS question 20: Ability to feel closeness and intimacy: −0.1
  Change in baseline scores, SANS question 21: Relationships with friends and peers: −0.2
  Change in baseline scores, SANS question 22: Global rating of anhedonia: −0.2
  Change in baseline scores, SANS question 23: Social inattentiveness: −0.9
  Change in baseline scores, SANS question 24: Inattentiveness during mental status testing: −1.3
  Change in baseline scores, SANS question 25: Global rating of attention: −0.3
  Change in baseline scores, SANS score: −10.6
  Change in baseline scores, SANS sub-scale 4 (anhedonia/asociality): −1.2
  Change in baseline scores, SANS sub-scale 5 (disturbance of attention): −2.5
[6]
  Change in baseline scores, SANS question 18: Recreational interests and activity: −1.3
  Change in baseline scores, SANS question 19: Sexual interest and activity: −1.5
  Change in baseline scores, SANS question 20: Ability to feel closeness and intimacy: −0.4
  Change in baseline scores, SANS question 21: Relationships with friends and peers: −0.7
  Change in baseline scores, SANS question 22: Global rating of anhedonia: −1.3
  Change in baseline scores, SANS question 23: Social inattentiveness: −0.6
  Change in baseline scores, SANS question 24: Inattentiveness during mental status testing: −0.9
  Change in baseline scores, SANS question 25: Global rating of attention: −0.5
  Change in baseline scores, SANS score: −10.4
  Change in baseline scores, SANS sub-scale 4 (anhedonia/asociality): −5.1
  Change in baseline scores, SANS sub-scale 5 (disturbance of attention): −1.8
[7]
  Change in baseline scores, SANS question 15: Impersistence at work or school: −0.3
  Change in baseline scores, SANS question 18: Recreational interests and activity: −0.3
  Change in baseline scores, SANS question 19: Sexual interest and activity: 0.0
  Change in baseline scores, SANS question 20: Ability to feel closeness and intimacy: 0.0
  Change in baseline scores, SANS question 21: Relationships with friends and peers: −0.1
  Change in baseline scores, SANS question 22: Global rating of anhedonia: −0.2
  Change in baseline scores, SANS question 23: Social inattentiveness: 0.2
  Change in baseline scores, SANS question 24: Inattentiveness during mental status testing: −0.1
  Change in baseline scores, SANS question 25: Global rating of attention: 0.0
  Change in baseline scores, SANS score: −3.6
  Change in baseline scores, SANS sub-scale 4 (anhedonia/asociality): −0.4
  Change in baseline scores, SANS sub-scale 5 (disturbance of attention): 0.1
CBD vs placebo, all patients, P = 0.0187
  Change in baseline scores, SANS question 15: Impersistence at work or school: difference: (−0.4)
